Source: US10668027B1, “Method of treating Acanthamoeba infection using allopurinol” (University of South Florida, priority 2014, dated 2020)
Like-named read-outs stand apart in the source and are kept apart here.

Assays:
[1] = system: Acanthamoeba castellani (ATCC strain 50370); experiment: microbe, parasite or virus in culture; conditions: Acanthamoeba castellanii, ATCC50370, CHO, 19 h, read-out: IC50, protection against A. castellani cytotoxicity
[2] = biological target: T1, N. fowleri Nfa-1 hemerythrin (Naegleria fowleri, UniProt Q9NH76); experiment: biochemical
T1 construct: made in house; host or cells: E. coli
T1 sequence (Q9NH76 whole entry): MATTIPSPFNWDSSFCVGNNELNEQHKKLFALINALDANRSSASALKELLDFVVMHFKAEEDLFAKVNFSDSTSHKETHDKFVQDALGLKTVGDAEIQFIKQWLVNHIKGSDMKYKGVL
From the text: (§1) The N. fowleri Nfa-1 gene (360 bp, GenBank Accession No. AF230370) was amplified by PCR from genomic N. fowleri DNA using PCR primers that included the Nde1 and Sap1 restriction enzyme sites for subsequent cloning into the Nde1 and Sap1 sites of the bacterial expression vector pTwin1 (forward primer with Nde1 site underlined; ATG start codon is indicated in bold: SEQ ID NO: 1 5′-[…]-3′, reverse primer with Sap1 site underlined: SEQ ID NO: 2 5′-[…]-3′), which contained a thiol-inducible intein protease fused to a chitin-binding domain. Recombinant Nfa-1 protein was produced in E. coli and purified by chitin-agarose chromatography followed by cleavage and elution of the purified Nfa-1 protein by 40 mM dithiothreitol (DTT) and subsequent size-exclusion chromatography purification.
(§2) Enzymatic oxidase activity, kinetics and pharmacological drug inhibition assays of recombinant N. fowleri Nfa-1 hemerythrin were determined in vitro using NADH or NADPH as the substrate and electron donor and ferricyanide as electron acceptor. Various drugs and inhibitors specific for xanthine oxidase-like enzymes, NAD(P)H oxidases, or NADH peroxidase were included in the pharmacological inhibition assays.

[3] = system: Naegleria fowleri strain Nf69 (ATCC 30215); experiment: LDH cytotoxicity assay of N. fowleri amoebae co-cultured with CHO cells; conditions: ATCC30215, CHO, 13 h, read-out: IC50, protection from N. fowleri cytotoxicity
Experimental: Naegleria fowleri strain Nf69 (ATCC 30215) was cultivated at about 33° C. in modified Nelson's medium (about 1 mM Na2HPO4, about 1 mM KH2PO4, about 2.05 mM NaCl, about 16.2 μM MgSO4, about 27.2 μM CaCl2), about 0.17 g/L DIFCO Liver infusion broth, about 9.4 mM glucose) supplemented with about 10% heat-inactivated fetal bovine serum. For cytotoxicity assays, Chinese hamster ovary (CHO) cells were grown at about 37° C. in DMEM medium supplemented with about 10% fetal bovine serum until cultures reached about 70-80% confluency. Subsequently cultures were infected with N. fowleri cells at a ratio of 1 N. fowleri amoeba per 5-10 CHO cells and co-cultivated overnight for about 13 hours at about 37° C. The cytotoxicity effect of N. fowleri amoebae on CHO cells was measured by an LDH-based cytotoxicity assay that quantifies the release of lactate dehydrogenase (LDH) from dead cells at 490 nm wavelength absorbance for calculation of amoeba-induced cytotoxicity to the mammalian host cells.
Cytotoxicity of Naegleria fowleri amoebae was measured with CHO cells co-cultured with N. fowleri for about 13 hours at about 37° C. using the LDH cytotoxicity assay (infection ratio of 1 amoeba cell per 5-10 CHO cells) as described above.

[4] = biological target: T1, N. fowleri Nfa-1 hemerythrin; experiment: Initial-rate enzyme kinetics of Nfa-1 hemerythrin using NADH or NADPH as substrates; assay type: biochemical; conditions: substrate 10-200 μM, ferricyanide 200 μM, 40 sec at 23° C., Michaelis-Menten analysis; for Km: read-out: apparent Km
From the text: as §1, §2
Enzyme kinetics were determined using NADH or NADPH at 10-200 μM concentration as electron donor and ferricyanide (200 μM) as electron acceptor for initial-rate enzyme kinetics of 40 sec at 23° C.

[5] = recombinant N. fowleri Nfa-1 oxidase in vitro, read-out: Ki, inhibition of Nfa-1 enzyme activity

Structure (SMILES): Oc1ncnc2[nH]ncc12 [Allopurinol]
- IC50 [1]: 620 µM
- Ki [2, 5]: 134 µM
- IC50 [3]: 48 µM

Structure (SMILES): O=[N+]([O-])[O-].[Ag+] [AgNO3]
- Ki [2, 5]: 345 µM

Structure (SMILES): OO [Formula H2O2, H2O2]
- stimulation of Nfa-1 enzyme activity ([2]; NADH peroxidase activator, FIG. 9): 9.7%

Structure (SMILES): NC(=O)C1=CN([C@@H]2O[C@H](COP(=O)(O)OP(=O)(O)OC[C@H]3O[C@@H](n4cnc5c(N)ncnc54)[C@H](O)[C@@H]3O)[C@@H](O)[C@H]2O)C=CC1 [NADH]
- apparent kat [4]: 4.4 s⁻¹
- Km [4]: 64.5 µM

Structure (SMILES): O=c1[nH]cnc2nc[nH]c12 [hypoxanthine]
- Ki [2]: 1000 µM
- IC50 [3]: 497 µM

Structure (SMILES): c1ccc2c(c1)[I+]c1ccccc1-2 [DPI, diphenyleneiodonium chloride]
- Ki [2]: 19 µM
- IC50 [3]: 49 µM

Structure (SMILES): NC(=O)C1=CN([C@@H]2O[C@H](COP(=O)(O)OP(=O)(O)OC[C@H]3O[C@@H](n4cnc5c(N)ncnc54)[C@H](OP(=O)(O)O)[C@@H]3O)[C@@H](O)[C@H]2O)C=CC1 [NADPH]
- apparent kat [4]: 3.3 s⁻¹
- Km [4]: 22.3 µM

Structure (SMILES): O=C(O)c1cc[c]([Hg][OH])cc1 [pHMB, para-hydroxymercuribenzoate]
- Ki [2]: 78 µM

Structure (SMILES): COc1cc(C(C)=O)ccc1O [Apocynin]
- IC50 [1]: 174 µM
- Ki [2, 5]: 17 µM
- IC50 [3]: 15 µM
